From PMC10569896, “Molecular Investigation of the Antitumor Effects of Monoamine Oxidase Inhibitors in Breast Cancer Cells” (BioMed Research International, 2023)

How the values were obtained:
[1] = test system: T-47D; test: cells; set-up: MTT cell viability assay, antiproliferative IC50 in T-47D breast cancer cells; conditions: Homo sapiens, T47D, 48 h
Description: (§1) To assess the effect of MAO-AIs on the survival and proliferation of breast cancer cells, MTT colorimetric analysis was performed as previously described. MDA-MB-231 and T47D cells were seeded into a 96-well plate, at a different seeding density per well depending on proliferation ability, doubling time, and target time of treatment. Then, cells were maintained at 37°C in a humidified 5% CO2 atmosphere. Cell viability was calculated as follows: cell viability (%) = [(optical density of viable cells in the test group)/optical density of viable cells in the negative control group] × 100%. Experiments were run at least 2-3 times independently. […] The ratio of IC50 for each drug alone guided the selection of an appropriate combination ratio. As described earlier, the MTT test was used to determine cell viability after treatment time elapsed (48 hours). CompuSyn software (ComboSyn Inc., Paramus, NJ, USA) was used to determine the combination index (CI), which is based on Chou-Talalay's combination index theorem, and its formula is the sum of the ratio of the dose of each drug in the compound to the dose when used alone when the combination and compound produce 50% efficacy. CI values < 1, =1, and > 1 indicate synergism, additive, and antagonistic effects, respectively, as shown in Equation (1). In this study, MTT assay was performed after exposing MDA-MB-231 and T-47d cell lines to increasing concentrations of MAO-A inhibitors for either 24, 48, or 72 h. […] Breast cancer cell lines, T-47D and MDA-MB-231 cells, were purchased from American Type Culture Collection (ATCC, USA). Cells were cultured in DMEM high glucose culture medium supplemented with 10% fetal bovine serum (FBS), 2 mM L-glutamine, 100 U/mL penicillin, and 0.1 mg/mL streptomycin. Cells were maintained in a humidified controlled temperature incubator set at 37°C, 95% humidity, and 5% CO2.

[2] = test system: MDA-MB-231; test: cells; set-up: MTT cell viability assay, antiproliferative IC50 in MDA-MB-231 breast cancer cells; conditions: Homo sapiens, MDA-MB-231, 48 h
Description: as §1

Work on `O=C(c1ccc(OCCN2CCCCC2)cc1)c1c(-c2ccc(O)cc2)sc2cc(O)ccc12` [Raloxifene] yielded an IC50 [1] of 28 µM and an IC50 [2] of 27 µM.

`C#CCN(C)CCCOc1ccc(Cl)cc1Cl` [J19, clorgyline] was tested, and the IC50 [1] was 157 µM and the IC50 [2] was 163 µM.

`COc1cccc2c1C(=O)c1c(O)c3c(c(O)c1C2=O)C[C@@](O)(C(=O)CO)C[C@@H]3O[C@H]1C[C@H](N)[C@H](O)[C@H](C)O1` [Doxorubicin] showed an IC50 [1] of 2.2 µM and an IC50 [2] of 2 µM.
